From patent publication US20260000698A1 (priority 2022, published 2026)
pIC50: −log10 of the molar value. Marks after values point to notes of the source that are not given here.

What was measured:
SARS-CoV-2 Nsp14 MTase = SARS-CoV-2 Nsp14 MTase (Severe acute respiratory syndrome coronavirus 2, UniProt P0DTD1); assay: biochemical; assay type: biochemical
[1] = Plasma stability assay, human plasma; assay type: in vitro ADME
Procedure: Plasma stability assay. The plasma stability assay was performed in triplicate by incubating each selected compound (1 μmol/L final concentration) in normal mouse (CD-1) or human plasma (Innovative Research; Novi, MI, USA) diluted to 80% with 0.1 mol/L potassium phosphate buffer (pH 7.4) at 37° C. At 0, 1, 3, 6, and 24 h, a 50 μL aliquot of the plasma mixture was taken and quenched with 150 μL of acetonitrile containing 0.1% formic acid. The samples were then vortexed and centrifuged at 15,000 rpm (Eppendorf centrifuge 5424R; Enfield, CT, USA) for 5 min. The supernatants were collected and analyzed by LC-MS/MS to determine the in vitro plasma half-life (t1/2).

G9a = biological target: T1, G9a (Homo sapiens, UniProt Q96KQ7); assay: Human MTase screening: G9a; assay type: biochemical
T1 construct: purchased BPS Bioscience
T1 sequence (Q96KQ7 1-1210): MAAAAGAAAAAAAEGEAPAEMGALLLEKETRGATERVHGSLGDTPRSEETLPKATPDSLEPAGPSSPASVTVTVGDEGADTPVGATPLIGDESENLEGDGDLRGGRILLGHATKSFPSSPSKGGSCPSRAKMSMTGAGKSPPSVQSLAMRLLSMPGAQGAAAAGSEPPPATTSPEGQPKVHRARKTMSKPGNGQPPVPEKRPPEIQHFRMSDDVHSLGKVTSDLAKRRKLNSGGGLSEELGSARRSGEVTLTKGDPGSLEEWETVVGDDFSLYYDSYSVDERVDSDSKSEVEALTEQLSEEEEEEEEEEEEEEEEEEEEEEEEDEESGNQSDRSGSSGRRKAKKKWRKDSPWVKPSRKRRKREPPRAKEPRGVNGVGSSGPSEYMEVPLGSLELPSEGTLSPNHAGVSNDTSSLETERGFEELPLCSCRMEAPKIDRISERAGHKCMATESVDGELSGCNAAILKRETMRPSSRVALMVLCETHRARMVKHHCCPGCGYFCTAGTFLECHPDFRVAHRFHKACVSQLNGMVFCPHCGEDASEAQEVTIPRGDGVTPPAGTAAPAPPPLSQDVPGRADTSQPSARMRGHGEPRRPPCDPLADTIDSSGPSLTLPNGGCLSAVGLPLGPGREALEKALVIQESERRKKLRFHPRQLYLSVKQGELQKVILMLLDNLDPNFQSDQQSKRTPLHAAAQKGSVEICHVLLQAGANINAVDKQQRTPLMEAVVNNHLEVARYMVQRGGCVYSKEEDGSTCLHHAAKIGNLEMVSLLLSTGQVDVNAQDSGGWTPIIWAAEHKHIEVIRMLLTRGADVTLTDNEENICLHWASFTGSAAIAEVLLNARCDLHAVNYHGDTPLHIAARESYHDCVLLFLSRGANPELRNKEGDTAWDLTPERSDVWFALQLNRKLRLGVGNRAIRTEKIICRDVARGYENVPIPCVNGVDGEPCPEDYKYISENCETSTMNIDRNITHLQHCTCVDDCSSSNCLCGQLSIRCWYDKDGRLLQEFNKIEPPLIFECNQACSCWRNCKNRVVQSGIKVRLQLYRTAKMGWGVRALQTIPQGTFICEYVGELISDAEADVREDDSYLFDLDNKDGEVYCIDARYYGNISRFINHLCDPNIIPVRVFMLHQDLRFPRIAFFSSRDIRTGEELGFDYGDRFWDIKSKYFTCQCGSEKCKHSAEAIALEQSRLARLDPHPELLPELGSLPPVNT
Procedure: (§1) Assay conditions. The human methyltransferase inhibition assays were performed at BPS Bioscience (San Diego, CA, USA). All of the enzymatic reactions were conducted in duplicate at room temperature for 60-960 min in a 50 μL mixture containing proper methyltransferase assay buffer, S-adenosylmethionine (SAM), enzyme, and the test compound. These 50 μL reactions were carried out in wells of a substrate pre-coated plate. First, enzyme and inhibitor were added to assay wells and preincubated for 30 min at room temperature, then SAM was added to start the reaction. Final DMSO concentration was 1% in all reactions.
(§2) After enzymatic reactions, the reaction mixtures were discarded and each of the wells was washed three times with TBST buffer, and slowly shaken with Blocking Buffer for 10 min. Wells were emptied, and 100 μL of diluted primary antibody was added. The plate was then slowly shaken for 60 minutes at room temperature. […] Immediately, the luminescence of the samples was measured in a BioTek Synergy™ 2 (Winooski, VT, USA) microplate reader using Gen5 software.
(§3) Data analysis. […] The luminescence data/alpha counts were analyzed and compared. […] The percent activity in the presence of each compound was calculated according to the following equation: % activity=(C−C0)/(Ce−C0), where C=the luminescence/alpha counts in the presence of the compound.

METTL3/METTL14 = biological target: T2, METTL3/METTL14 (Homo sapiens, UniProt Q86U44); assay: Human MTase screening: METTL3/METTL14; assay type: biochemical
T2 construct: purchased BPS Bioscience
Procedure: as §1, §2, §3

[2] = tested on: SARS-CoV-2 isolate USA-WA1/2020; details: inhibition at 50 μM

T2 sequence (Q86U44 whole entry): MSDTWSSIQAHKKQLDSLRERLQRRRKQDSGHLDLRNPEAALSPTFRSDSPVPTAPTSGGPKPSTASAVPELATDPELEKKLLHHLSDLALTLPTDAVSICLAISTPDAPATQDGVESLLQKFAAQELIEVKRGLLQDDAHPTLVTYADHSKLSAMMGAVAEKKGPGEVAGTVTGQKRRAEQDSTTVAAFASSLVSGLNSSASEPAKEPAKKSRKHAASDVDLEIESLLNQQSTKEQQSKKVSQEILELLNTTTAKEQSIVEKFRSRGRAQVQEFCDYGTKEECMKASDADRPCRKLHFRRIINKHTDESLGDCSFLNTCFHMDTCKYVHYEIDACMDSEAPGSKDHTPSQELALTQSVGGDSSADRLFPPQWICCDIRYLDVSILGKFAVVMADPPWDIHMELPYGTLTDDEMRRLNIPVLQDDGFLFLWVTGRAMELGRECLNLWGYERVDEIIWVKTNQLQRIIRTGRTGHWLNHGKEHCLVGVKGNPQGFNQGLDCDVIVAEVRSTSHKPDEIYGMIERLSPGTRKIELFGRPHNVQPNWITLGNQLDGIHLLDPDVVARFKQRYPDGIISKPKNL
T2 sequence (Q9HCE5 whole entry partner): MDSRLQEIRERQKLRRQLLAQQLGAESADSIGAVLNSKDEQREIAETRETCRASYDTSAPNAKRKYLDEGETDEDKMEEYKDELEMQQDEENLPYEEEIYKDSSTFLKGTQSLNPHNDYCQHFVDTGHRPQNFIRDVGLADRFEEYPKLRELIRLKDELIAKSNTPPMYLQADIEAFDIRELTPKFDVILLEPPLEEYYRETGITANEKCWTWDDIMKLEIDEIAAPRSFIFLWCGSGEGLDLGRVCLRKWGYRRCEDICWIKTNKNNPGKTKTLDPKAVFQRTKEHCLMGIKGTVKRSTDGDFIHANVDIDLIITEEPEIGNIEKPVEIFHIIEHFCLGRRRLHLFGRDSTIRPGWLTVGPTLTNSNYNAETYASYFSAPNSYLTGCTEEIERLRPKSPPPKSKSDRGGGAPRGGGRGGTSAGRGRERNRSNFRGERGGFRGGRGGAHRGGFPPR

## Nc1ncnc2c1ncn2[C@@H]1O[C@H](CNS(=O)(=O)c2ccc3ccccc3c2)[C@@H](O)[C@H]1O [Compound 3, N-(((2R,3S,4R,5R)-5-(6-Amino-9H-purin-9-yl)-3,4-dihydroxytetrahydrofuran-2-yl)methyl)naphthalene-2-sulfonamide]
SARS-CoV-2 Nsp14 MTase; LC-MS/MS assay, read-out: IC50
  pIC50: 7.21
SARS-CoV-2 Nsp14 MTase; MTase IC50 vs compound 1
  fold more active than compound 1: > 150 fold
[1]; human plasma, 37° C., n = 3
  Plasma Stability t1/2, Human: >24^d h
[1]; human, plasma
  stability in human plasma: remarkably stable
G9a
  inhibition at 10 µM: 11%
METTL3/METTL14
  inhibition at 10 µM: 10%
[2]
  EC50: NA (not active): NA^a (NA, not active, <15% inhibition at 50 μM.)
other
  stability in mouse liver S9 fractions: resistant to phase I and II transformations
